Measured values as given in patent US12291516B2, “Substituted 1-amino-1H-imidazole-5-carboxamide as Bruton's tyrosine kinase inhibitors” (Henan Zhiwei Biomedicine Co., Ltd., priority 2019, dated 2025).

Target: BTK (Homo sapiens (Human), UniProt Q06187)
Test: In house ELISA kinase inhibition assay, BTK
Type: biochemical
Settings: footnote b: from in house procedure (ELISA)
Protocol: BTK inhibition Assay and selectivity Assay The assay was conducted either a by a third party (Reaction Biology Corporation, PA, USA) or in house.
b) In House Procedure for BTK, BMX, EGFR and ITK:
Kinase inhibitory activities of compounds were evaluated using the Enzyme-linked immunosorbent assay (ELISA). The kinase enzyme of BTK, BMX, EGFR and ITK were purchased from Carna Bioscience (Kobe, Japan). A total of 10 ng/mL antiphosphotyrosine (PY713) antibody (abcam, Cambridge Science Park, UK) was precoated in 96-well ELISA plates. The kinase enzymes in each reaction well were set to BTK (101.25 ng/mL), BMX (90 ng/mL), EGFR (90 ng/mL) or ITK (120 ng/mL) and incubated with indicated drugs in 1× reaction buffer (50 mmol/L HEPES pH 7.4, 20 mmol/L MgCl2, 0.1 mmol/L MnCl2, 1 mmol/L DTT) containing 20 μmol/L (the final concentration of substrate in ITK reaction was 30 μmol/L) substrate (NH2-[…]-biotin) at 25° C. for 1 h. Then, a total of 3 μmol/L ATP was added and the reaction was continued for 2 h. The products of reaction were transferred into 96-well ELISA plates containing antibody and incubated at 25° C. for 30 min. After incubation, the wells were washed with PBS and then incubated with horseradish peroxidase (HRP)-conjugated streptavidin. The wells were visualized using 3,3′,5,5′-tetramethylbenzidine (TMB), and chromogenic reaction was ended with 2 mol/L H2SO4, the absorbance was read with a multimode plate reader (PerkinElmer, USA) at 450 nm. IC50 values and curve fits were obtained using Prism (GraphPad Software). (Table I-IV)

BTK, sequence (Q06187 whole entry): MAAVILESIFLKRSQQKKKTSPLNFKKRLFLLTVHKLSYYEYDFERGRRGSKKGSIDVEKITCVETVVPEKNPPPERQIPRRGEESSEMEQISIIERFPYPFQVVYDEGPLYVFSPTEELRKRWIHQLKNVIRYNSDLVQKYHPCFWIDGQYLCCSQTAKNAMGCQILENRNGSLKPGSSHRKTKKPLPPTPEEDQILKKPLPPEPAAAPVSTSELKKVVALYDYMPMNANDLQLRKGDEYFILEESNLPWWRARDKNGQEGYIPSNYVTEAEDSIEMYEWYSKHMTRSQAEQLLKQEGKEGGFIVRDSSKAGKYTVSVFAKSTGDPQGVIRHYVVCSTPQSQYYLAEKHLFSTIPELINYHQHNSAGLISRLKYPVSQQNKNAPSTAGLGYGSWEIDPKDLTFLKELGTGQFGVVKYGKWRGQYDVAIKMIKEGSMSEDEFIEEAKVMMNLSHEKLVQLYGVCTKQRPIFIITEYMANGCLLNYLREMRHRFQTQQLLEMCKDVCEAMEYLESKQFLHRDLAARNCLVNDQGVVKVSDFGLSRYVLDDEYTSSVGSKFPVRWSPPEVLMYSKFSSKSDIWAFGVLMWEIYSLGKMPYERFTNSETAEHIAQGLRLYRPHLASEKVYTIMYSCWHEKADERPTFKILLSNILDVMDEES

Structure (SMILES)	IC50 [nM]
C=CC(=O)N1CCC[C@H]1c1nc(-c2ccc(C(=O)Nc3cc(C)ccn3)cc2)c(C(N)=O)n1N [Example 10, (S)-2-(1-acryloylpyrrolidin-2-yl)-1-amino-4-(4-((4-methylpyridin-2-yl)carbamoyl)phenyl)-1H-imidazole-5-carboxamide]	79
C=CC(=O)N1CCC[C@H]1c1nc(-c2ccc(C(=O)Nc3ccc(C)cn3)cc2)c(C(N)=O)n1N [Example 19, (S)-2-(1-acryloylpyrrolidin-2-yl)-1-amino-4-(4-((5-methylpyridin-2-yl)carbamoyl)phenyl)-1H-imidazole-5-carboxamide]	212
CC#CC(=O)N1CCC[C@H]1c1nc(-c2ccc(C(=O)Nc3ccc(C)cn3)cc2)c(C(N)=O)n1N [Example 27, (S)-1-amino-2-(1-(but-2-ynoyl)pyrrolidin-2-yl)-4-(4-((5-methylpyridin-2-yl)carbamoyl)phenyl)-1H-imidazole-5-carboxamide]	2060
C=CC(=O)N1CCC[C@H]1c1nc(-c2ccc(C(=O)Nc3cc(OC)ccn3)cc2)c(C(N)=O)n1N [Example 28, (S)-2-(1-acryloylpyrrolidin-2-yl)-1-amino-4-(4-((4-methoxypyridin-2-yl)carbamoyl)phenyl)-1H-imidazole-5-carboxamide]	72.9
CC#CC(=O)N1CCC[C@H]1c1nc(-c2ccc(C(=O)Nc3cc(OC)ccn3)cc2)c(C(N)=O)n1N [Example 34, (S)-1-amino-2-(1-(but-2-ynoyl)pyrrolidin-2-yl)-4-(4-((4-methoxy-pyridin-2-yl)carbamoyl)phenyl)-1H-imidazole-5-carboxamide]	1670
C=CC(=O)N1CCC[C@H]1c1nc(-c2ccc(C(=O)Nc3cc(CC)ccn3)cc2)c(C(N)=O)n1N [Example 35, (S)-2-(1-acryloylpyrrolidin-2-yl)-1-amino-4-(4-((4-ethylpyridin-2-yl)carbamoyl)phenyl)-1H-imidazole-5-carboxamide]	33
CC#CC(=O)N1CCC[C@H]1c1nc(-c2ccc(C(=O)Nc3cc(CC)ccn3)cc2)c(C(N)=O)n1N [Example 38, (S)-1-amino-2-(1-(but-2-ynoyl)pyrrolidin-2-yl)-4-(4-((4-ethylpyridin-2-yl)carbamoyl)phenyl)-1H-imidazole-5-carboxamide]	1040
CCc1ccnc(NC(=O)c2ccc(-c3nc([C@@H]4CCCN4C#N)n(N)c3C(N)=O)cc2)c1 [Example 39, (S)-1-amino-2-(1-cyanopyrrolidin-2-yl)-4-(4-((4-ethylpyridin-2-yl)carbamoyl)phenyl)-1H-imidazole-5-carboxamide]	3850
C=CC(=O)N1CCC[C@H]1c1nc(-c2ccc(C(=O)Nc3cc(F)ccn3)cc2)c(C(N)=O)n1N [Example 40, (S)-2-(1-acryloylpyrrolidin-2-yl)-1-amino-4-(4-((4-fluoropyridin-2-yl)carbamoyl)phenyl)-1H-imidazole-5-carboxamide]	70.6
CC#CC(=O)N1CCC[C@H]1c1nc(-c2ccc(C(=O)Nc3cc(F)ccn3)cc2)c(C(N)=O)n1N [Example 41, (S)-1-amino-2-(1-(but-2-ynoyl)pyrrolidin-2-yl)-4-(4-((4-fluoropyridin-2-yl)carbamoyl)phenyl)-1H-imidazole-5-carboxamide]	1680
C=CC(=O)N1CCC[C@H]1c1nc(-c2ccc(C(=O)Nc3cc(C(F)(F)F)ccn3)cc2)c(C(N)=O)n1N [Example 42, (S)-2-(1-acryloylpyrrolidin-2-yl)-1-amino-4-(4-((4-(trifluoromethyl)pyridin-2-yl)carbamoyl)phenyl)-1H-imidazole-5-carboxamide]	48
CC#CC(=O)N1CCC[C@H]1c1nc(-c2ccc(C(=O)Nc3cc(C(F)(F)F)ccn3)cc2)c(C(N)=O)n1N [Example 43, (S)-1-amino-2-(1-(but-2-ynoyl)pyrrolidin-2-yl)-4-(4-((4-(trifluoro-methyl)pyridin-2-yl)carbamoyl)phenyl)-1H-imidazole-5-carboxamide]	577
C=CC(=O)N1CCC[C@H]1c1nc(-c2ccc(C(=O)Nc3cc(C(C)C)ccn3)cc2)c(C(N)=O)n1N [Example 44, (S)-2-(1-acryloylpyrrolidin-2-yl)-1-amino-4-(4-((4-isopropylpyridin-2-yl)carbamoyl)phenyl)-1H-imidazole-5-carboxamide]	122
C=CC(=O)N1CCC[C@H]1c1nc(-c2ccc(C(=O)Nc3cc(C)ccn3)cc2)c(C(N)=O)n1NC [Example 45, (S)-2-(1-acryloylpyrrolidin-2-yl)-1-(methylamino)-4-(4-((4-methyl-pyridin-2-yl)carbamoyl)phenyl)-1H-imidazole-5-carboxamide]	58.2
CC#CC(=O)N1CCCC[C@H]1c1nc(-c2ccc(C(=O)Nc3ccccn3)cc2)c(C(N)=O)n1N [Example 50, (S)-1-amino-2-(1-(but-2-ynoyl)piperidin-2-yl)-4-(4-(pyridin-2-ylcarbamoyl)phenyl)-1H-imidazole-5-carboxamide]	100
C=CC(=O)N1CCCC[C@H]1c1nc(-c2ccc(C(=O)Nc3cc(C)ccn3)cc2)c(C(N)=O)n1N [Example 53, (S)-2-(1-acryloylpiperidin-2-yl)-1-amino-4-(4-((4-methylpyridin-2-yl)carbamoyl)phenyl)-1H-imidazole-5-carboxamide]	18.1
CC#CC(=O)N1CCCC[C@H]1c1nc(-c2ccc(C(=O)Nc3cc(C)ccn3)cc2)c(C(N)=O)n1N [Example 58, (S)-1-amino-2-(1-(but-2-ynoyl)piperidin-2-yl)-4-(4-((4-methylpyridin-2-yl)carbamoyl)phenyl)-1H-imidazole-5-carboxamide]	58.1
C=C(F)C(=O)N1CCCC[C@H]1c1nc(-c2ccc(C(=O)Nc3cc(C)ccn3)cc2)c(C(N)=O)n1N [Example 59, (S)-1-amino-2-(1-(2-fluoroacryloyl)piperidin-2-yl)-4-(4-((4-methylpyridin-2-yl)carbamoyl)phenyl)-1H-imidazole-5-carboxamide]	1270
Cc1ccnc(NC(=O)c2ccc(-c3nc([C@@H]4CCCCN4C(=O)/C=C/C(F)(F)F)n(N)c3C(N)=O)cc2)c1 [Example 60, (S,E)-1-amino-4-(4-((4-methylpyridin-2-yl)carbamoyl)phenyl)-2-(1-(4,4,4-trifluorobut-2-enoyl)piperidin-2-yl)-1H-imidazole-5-carboxamide]	43.9
C=CC(=O)N1CCCC[C@H]1c1nc(-c2ccc(C(=O)Nc3ccc(C)cn3)cc2)c(C(N)=O)n1N [Example 61, (S)-2-(1-acryloylpiperidin-2-yl)-1-amino-4-(4-((5-methylpyridin-2-yl)carbamoyl)phenyl)-1H-imidazole-5-carboxamide]	18.4
CC#CC(=O)N1CCCC[C@H]1c1nc(-c2ccc(C(=O)Nc3ccc(C)cn3)cc2)c(C(N)=O)n1N [Example 64, (S)-1-amino-2-(1-(but-2-ynoyl)piperidin-2-yl)-4-(4-((5-methylpyridin-2-yl)carbamoyl)phenyl)-1H-imidazole-5-carboxamide]	129
C=CC(=O)N1CCCC[C@H]1c1nc(-c2ccc(C(=O)Nc3cc(-c4ccccc4)ccn3)cc2)c(C(N)=O)n1N [Example 65, (S)-2-(1-acryloylpiperidin-2-yl)-1-amino-4-(4-((4-phenylpyridin-2-yl)carbamoyl)phenyl)-1H-imidazole-5-carboxamide]	5.06
CC#CC(=O)N1CCCC[C@H]1c1nc(-c2ccc(C(=O)Nc3cc(-c4ccccc4)ccn3)cc2)c(C(N)=O)n1N [Example 66, (S)-1-amino-2-(1-(but-2-ynoyl)piperidin-2-yl)-4-(4-((4-phenylpyridin-2-yl)carbamoyl)phenyl)-1H-imidazole-5-carboxamide]	16.4
C=CC(=O)N1CCCC[C@H]1c1nc(-c2ccc(C(=O)Nc3cc(OC)ccn3)cc2)c(C(N)=O)n1N [Example 67, (S)-2-(1-acryloylpiperidin-2-yl)-1-amino-4-(4-((4-methoxypyridin-2-yl)carbamoyl)phenyl)-1H-imidazole-5-carboxamide]	9.12
CC#CC(=O)N1CCCC[C@H]1c1nc(-c2ccc(C(=O)Nc3cc(OC)ccn3)cc2)c(C(N)=O)n1N [Example 68, (S)-1-amino-2-(1-(but-2-ynoyl)piperidin-2-yl)-4-(4-((4-methoxy-pyridin-2-yl)carbamoyl)phenyl)-1H-imidazole-5-carboxamide]	79.6
COc1ccnc(NC(=O)c2ccc(-c3nc([C@@H]4CCCCN4C(=O)/C=C/C(F)(F)F)n(N)c3C(N)=O)cc2)c1 [Example 69, (S,E)-1-amino-4-(4-((4-methoxypyridin-2-yl)carbamoyl)phenyl)-2-(1-(4,4,4-trifluorobut-2-enoyl)piperidin-2-yl)-1H-imidazole-5-carboxamide]	70.7
C=C(F)C(=O)N1CCCC[C@H]1c1nc(-c2ccc(C(=O)Nc3cc(OC)ccn3)cc2)c(C(N)=O)n1N [Example 70, (S)-1-amino-2-(1-(2-fluoroacryloyl)piperidin-2-yl)-4-(4-((4-methoxy-pyridin-2-yl)carbamoyl)phenyl)-1H-imidazole-5-carboxamide]	2890
